From US10624345B2, “Protoporphyrinogen oxidase inhibitor mixtures” (Valent U.S.A. LLC, priority 2017, dated 2020)
Entries after “also recorded” stand apart in the source; their conditions may differ.

Experiments:
[1] = test system: Hemp Sesbania; test: Field trial, post-emergence weed control, Hemp Sesbania; format: in vivo; conditions: compared with the other adjuvant; in words
Description: (§1) A field trial was conducted in Mississippi, United States, to evaluate the impact of the C16 to C18 fatty acid methyl esters adjuvant system on the effectiveness of several herbicides. Rice, soybeans, cotton, peanut and corn seeds were planted and irrigated on two days after planting. Seven days after planting there was good stand of all of the crops, except only 4 of the 9 rows of rice were visible. The weeds were about 3 centimeters tall at this time. The treatments in Table 2 below were applied 13 days after planting. The rate of each treatment is below in Table 2 and all of the adjuvant systems were mixed with the herbicides at a rate of 1% v/v.
(§2) At the time of treatment: Hemp Sesbania was at the V4 growth stage and from about 3 to 5 about inches tall; Ivyleaf Morningglory was at the V3 growth stage and from about 2 to about 4 inches tall; Common Barnyardgrass was at the V5 growth stage and from about 2.5 to about 6 inches tall; Palmer Amaranth was at the vegetative growth stage and from about 2 to about 7 inches tall; Yellow Nutsedge was at the V8 growth stage and from about 3 to about 6 inches tall; and Broadleaf Signalgrass was at the second true leaf growth stage and from about 2 to about 4 inches tall.
(§3) The weeds were evaluated fourteen days after treatment. […]

[2] = test system: Ivyleaf Morningglory; test: Field trial, post-emergence weed control, Ivyleaf Morningglory; format: in vivo; conditions: compared with the other adjuvant; in words
Description: as §1, §2, §3

[3] = test system: Common Barnyardgrass; test: Field trial, post-emergence weed control, Common Barnyardgrass; format: in vivo, Echinochloa crus-galli; conditions: compared with the other adjuvant; in words
Description: as §1, §2, §3

[4] = test system: Broadleaf Signalgrass; test: Field trial, post-emergence weed control, Broadleaf Signalgrass; format: in vivo, Brachiaria platyhylla; conditions: compared with the other adjuvant; in words
Description: as §1, §2, §3

[5] = test system: Palmer Amaranth; test: Field trial, post-emergence weed control, Palmer Amaranth; format: in vivo; conditions: compared with the other adjuvant; in words
Description: as §1, §2, §3

[6] = test system: Yellow Nutsedge; test: Field trial, post-emergence weed control, Yellow Nutsedge; format: in vivo, Cyperus esculentus; conditions: compared with the other adjuvant; in words
Description: as §1, §2, §3

[7] = test system: rice; test: Field trial, crop phytotoxicity, rice; format: in vivo; conditions: compared with the other adjuvant; in words
Description: as §1
(§4) At the time of treatment: rice was at the first true leaf growth stage and from about 5 to 7 inches tall; soybeans were at the V2 growth stage and from about 5 to 7 inches tall; cotton was at the V2 growth stage and from about 5 to 7 inches tall; peanut was at the V5 growth stage and from about 3 to 5 inches tall; and corn was at the V3 growth stage and from about 9 to 12 inches tall.
(§5) The adjuvant system described in Example 1 above was used as the source of the C16 to C18 fatty acid methyl esters adjuvant system used in this study.
(§6) In this study, phytotoxicity of the crops was also evaluated.

[8] = test system: soybeans; test: Field trial, crop phytotoxicity, soybeans; format: in vivo; conditions: compared with the other adjuvant; in words
Description: as §1, §4, §5, §6

[9] = test system: cotton; test: Field trial, crop phytotoxicity, cotton; format: in vivo; conditions: compared with the other adjuvant; in words
Description: as §1, §4, §5, §6

[10] = test system: peanut; test: Field trial, crop phytotoxicity, peanut; format: in vivo; conditions: compared with the other adjuvant; in words
Description: as §1, §4, §5, §6

[11] = test system: corn; test: Field trial, crop phytotoxicity, corn; format: in vivo; conditions: compared with the other adjuvant; in words
Description: as §1, §4, §5, §6

[12] = test system: weeds; test: Field trial, impact of the adjuvant system on herbicide effectiveness, weeds overall; format: in vivo; conditions: compared with the other adjuvant; no weed named; in words
Description: as §1, §2
The weeds were evaluated fourteen days after treatment.
as §5

SMILES | Effect of C16 to C18 fatty acid methyl esters adjuvant system on effectiveness on Hemp Sesbania [1] | Effect of C16 to C18 fatty acid methyl esters adjuvant system on effectiveness on Ivyleaf Morningglory [2] | Effect of C16 to C18 fatty acid methyl esters adjuvant system on effectiveness on Common Barnyardgrass [3] | Effect of C16 to C18 fatty acid methyl esters adjuvant system on effectiveness on Broadleaf Signalgrass [4] | Effect of C16 to C18 fatty acid methyl esters adjuvant system on effectiveness on Palmer Amaranth [5] | Effect of C16 to C18 fatty acid methyl esters adjuvant system on effectiveness on Yellow Nutsedge [6] | Effect of C16 to C18 fatty acid methyl esters adjuvant system on phytotoxicity on rice [7] | Effect of C16 to C18 fatty acid methyl esters adjuvant system on phytotoxicity on soybeans [8] | Effect of C16 to C18 fatty acid methyl esters adjuvant system on phytotoxicity on cotton [9] | Effect of C16 to C18 fatty acid methyl esters adjuvant system on phytotoxicity on peanut [10] | Effect of C16 to C18 fatty acid methyl esters adjuvant system on phytotoxicity on corn [11] | Effect of C16 to C18 fatty acid methyl esters adjuvant system on effectiveness/efficacy of the herbicide (weeds overall) [12]
CCOC(=O)COc1ncccc1Oc1cc(-n2c(=O)cc(C(F)(F)F)n(C)c2=O)c(F)cc1Cl [ethyl [3-[2-chloro-4-fluoro-5-(1-methyl-6-trifluoromethyl-2,4-dioxo-1,2,3,4-tetrahydropyrimidin-3-yl)phenoxy]-2-pyridyloxy]acetate] | did not increase the effectiveness | did not increase the effectiveness | increases the effectiveness | increases the effectiveness | did not increase the effectiveness | did not increase the effectiveness | increase the phytotoxicity | did not significantly increase phytotoxicity | did not significantly increase phytotoxicity | increase the phytotoxicity | did not significantly increase phytotoxicity | improved the efficacy
C#CCN1C(=O)COc2cc(F)c(N3C(=O)C4=C(CCCC4)C3=O)cc21 [flumioxazin] |  |  |  |  |  |  |  |  |  |  |  | did not improve the efficacy; also recorded: failed to increase the effectiveness
CCOC(=O)C(C)OC(=O)c1cc(Oc2ccc(C(F)(F)F)cc2Cl)ccc1[N+](=O)[O-] (centres unmarked) [lactofen] |  |  |  |  |  |  |  |  |  |  |  | did not improve the efficacy; also recorded: failed to increase the effectiveness
